Results on ten molecules are retold here after ChEMBL document CHEMBL1152941, “Isocoumarin glucosides from the scale insect fungus Torrubiella tenuis BCC 12732” (J Nat Prod, 2009).

For test [1], the system named is Human alphaherpesvirus 1. Nature of the test: Antiviral activity against HSV1 by green fluorescent protein microplate assay. In kind it is functional, organism-based.
Test [2] relates to NCI-H187. Briefly: Cytotoxicity against human NCI-H187 cells by resazurin microplate assay. It is filed as functional, cell-based. In general terms: Alamar Blue is a resazurin reagent that responds to reducing activity.
In test [3] the test system is Mycobacterium tuberculosis. Nature of the test: Antitubercular activity against Mycobacterium tuberculosis H37Ra by green fluorescent protein microplate assay. In kind it is functional.
Test [4] relates to KB. Briefly: Cytotoxicity against human KB cells by resazurin microplate assay. It is filed as functional, cell-based.
Test [5] concerns Plasmodium falciparum. Briefly: Antimalarial activity against Plasmodium falciparum K1 by microculture radioisotope technique. It is filed as functional, organism-based.
Test [6] relates to MCF7. Nature of the test: Cytotoxicity against human MCF7 cells by resazurin microplate assay. It is filed as functional, cell-based.
For test [7], the system named is Vero. Nature of the test: Cytotoxicity against african green monkey Vero cells by green fluorescent protein microplate assay. In kind it is cell-based. To be noted: Chlorocebus sabaeus.
[8] abbreviates: Human alphaherpesvirus 1, read-out: IC50.

Converted amounts (≈) assume the structure as drawn. The source made the active and inactive calls. The calls are words filed in the database; no cut-off is given here.

Turning to `O=c1oc(CO)cc2cc(O)cc(O)c12`, in test [1] (setting [8]), the IC50 was 50 µg/mL (≈ 240 µM). In addition, the outcome in test [2] was inactive. This molecule also showed an MIC in test [3] of 25 µg/mL (≈ 120 µM).

As to `Cc1cc2cc(O)cc(O)c2c(=O)o1`, the IC50 entry in test [1] is listed as “Not Active”. In addition, the outcome in test [2], in test [4] and in test [5] was inactive. For the same molecule, in test [3], the MIC result was “inactive”.

Turning to `CO[C@H]1[C@H](O)[C@@H](O)[C@H](Oc2cc(O)c3c(=O)oc(C)cc3c2)O[C@@H]1CO`, the IC50 result in test [1] is reported as “Not Active”. The result in test [2], in test [4] and in test [5] was inactive. Moreover, the MIC result in test [3] was “inactive”.

With `CO[C@H]1[C@H](O)[C@@H](O)[C@H](OCc2cc3cc(O)cc(O)c3c(=O)o2)O[C@@H]1CO`, the IC50 result in test [1] was “Not Active”. For the same molecule, the outcome in test [2], in test [4] and in test [5] was inactive. The MIC entry in test [3] was “inactive”.

For the molecule `CO[C@H]1[C@H](O)[C@@H](O)[C@H](Oc2cc(O)c3c(=O)oc(CO)cc3c2)O[C@@H]1CO`, in test [1], the IC50 entry is “Not Active”. Moreover, the result in test [6], in test [2], in test [4] and in test [5] was inactive. Moreover, in test [3], the MIC result was “inactive”.

Regarding `Nc1nc2c(ncn2COCCO)c(=O)[nH]1` [ACYCLOVIR], in test [1] (setting [8]), the IC50 stood at 6.86 µg/mL (≈ 30.5 µM).

`NNC(=O)c1ccncc1` [ISONIAZID] had an MIC in test [3] of 0.023 µg/mL (≈ 0.168 µM).

Turning to `COc1cccc2c1C(=O)c1c(O)c3c(c(O)c1C2=O)C[C@@](O)(C(=O)CO)C[C@@H]3O[C@H]1C[C@H](N)[C@H](O)[C@H](C)O1` [DOXORUBICIN], the values for the IC50 in test [6], in test [2] and in test [4] were 0.899 µg/mL (≈ 1.65 µM), 0.058 µg/mL (≈ 0.107 µM) and 0.144 µg/mL (≈ 0.265 µM), respectively.

In test [7], `Cc1c2ccncc2c(C)c2c1[nH]c1ccccc12` [ELLIPTECINE] yielded an IC50 of 1.16 µg/mL (≈ 4.71 µM).

Regarding `C[C@H]1[C@@H](O)O[C@@H]2O[C@@]3(C)CC[C@H]4[C@H](C)CC[C@@H]1[C@@]24OO3` [ARTENIMOL], the IC50 in test [5] amounted to 0.0011 µg/mL (≈ 0.00387 µM).

Broadly, the IC50 is the point on the concentration scale where inhibition reaches its midpoint. The MIC is the least concentration at which growth counts as inhibited.
